Data: the supplement of paper PMC8617591

Legend:
[1] = system: Mycobacterium tuberculosis Erdman (autoluminescent); assay: total FIC50 (Loewe) at 50% inhibition, three-drug combination (log2); higher = more antagonistic
Protocol: (§1)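 DiaMOND equipotent three-drug combination dose responses (10 doses, 1.5- or 2-fold spacing, centred on IC90) against autoluminescent M. tuberculosis Erdman in 8 in vitro models. Read-out is OD600, or luminescence for the intracellular and dormancy models, normalised to untreated wells. Hill-fit Einf, AUC25 and GRinf are potency metrics; FIC50 and FIC90 are total Loewe fractional inhibitory concentrations as log2 (negative = synergy).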

[2] = system: Mycobacterium tuberculosis Erdman (autoluminescent); assay: total FIC90 (Loewe) at 90% inhibition, three-drug combination (log2); higher = more antagonistic
Protocol: as §1

[3] = system: Mycobacterium tuberculosis Erdman (autoluminescent); assay: Einf, fitted maximum growth inhibition of three-drug combination (fraction); higher = stronger maximal inhibition
Protocol: as §1

[4] = system: Mycobacterium tuberculosis Erdman (autoluminescent); assay: AUC25, normalised area under dose response up to IC25 (three-drug combination) (fraction (0-1)); higher = more potent at low dose
Protocol: as §1

[5] = system: Mycobacterium tuberculosis Erdman (autoluminescent); assay: GRinf, maximum normalised growth rate inhibition (three-drug combination) (unitless (-1 to 1)); higher = less effect (negative = killing)
Protocol: as §1

CC(C)/N=c1\cc2n(-c3ccc(Cl)cc3)c3ccccc3nc-2cc1Nc1ccc(Cl)cc1 [clofazimine] + NC(=O)c1cnccn1 [pyrazinamide] + CO[C@H]1/C=C/O[C@@]2(C)Oc3c(C)c(O)c4c(O)c(c(/C=N/N5CCN(C6CCCC6)CC5)c(O)c4c3C2=O)NC(=O)/C(C)=C\C=C\[C@H](C)[C@H](O)[C@@H](C)[C@@H](O)[C@@H](C)[C@H](OC(C)=O)[C@@H]1C [rifapentine]
Settings | AUC25, [4] | Einf, [3] | GRinf, [5] | total FIC50, [1] | total FIC90, [2]
in vitro model: acidic pH 5.7, time point: constant (~7 days, model-specific) | 0.0912 | 0.872 | -0.0882 | -0.248 | –
in vitro model: acidic pH 5.7, time point: terminal (~4-5 doublings, model-specific) | 0.0866 | 0.992 | -0.166 | -0.185 | -0.282
in vitro model: intracellular J774, time point: constant = terminal | – | 0.987 | -0.31 | – | -0.162

Settings | AUC25, [4] | Einf, [3] | GRinf, [5] | total FIC50, [1] | total FIC90, [2]
in vitro model: butyrate, time point: constant (~7 days, model-specific) | 0.112 | 0.934 | -0.137 | 0.135 | 0.657
in vitro model: butyrate, time point: terminal (~4-5 doublings, model-specific) | 0.0906 | 0.969 | -0.0833 | 0.161 | 0.364
in vitro model: cholesterol 0.05 mM, time point: constant (~7 days, model-specific) | 0.142 | 0.621 | -0.201 | – | –
in vitro model: cholesterol 0.05 mM, time point: terminal (~4-5 doublings, model-specific) | 0.111 | 0.899 | -0.27 | 0.876 | –
in vitro model: cholesterol-high 0.2 mM, time point: constant (~7 days, model-specific) | 0.121 | 0.905 | -0.547 | 0.527 | –
in vitro model: cholesterol-high 0.2 mM, time point: terminal (~4-5 doublings, model-specific) | 0.0971 | 0.984 | -0.634 | 0.828 | 0.832
in vitro model: dormancy (butyrate + nitrate, low O2), time point: constant (~7 days, model-specific) | 0.0828 | 0.929 | 0.0852 | -0.285 | -1.22
in vitro model: dormancy (butyrate + nitrate, low O2), time point: terminal (~4-5 doublings, model-specific) | 0.0573 | 0.993 | -0.269 | -0.0992 | 0.0246
in vitro model: standard 7H9 glycerol, time point: constant = terminal | 0.115 | 0.936 | -0.0744 | -0.0271 | –
in vitro model: valerate, time point: constant (~7 days, model-specific) | 0.118 | 0.911 | -0.101 | 0.0622 | –
in vitro model: valerate, time point: terminal (~4-5 doublings, model-specific) | 0.0526 | 0.901 | 0.0624 | 0.391 | 1.33

CC(C)/N=c1\cc2n(-c3ccc(Cl)cc3)c3ccccc3nc-2cc1Nc1ccc(Cl)cc1 [clofazimine] + NC(=O)c1cnccn1 [pyrazinamide] + CO[C@H]1/C=C/O[C@@]2(C)Oc3c(C)c(O)c4c(O)c(c(/C=N/N5CCN(C)CC5)c(O)c4c3C2=O)NC(=O)/C(C)=C\C=C\[C@H](C)[C@H](O)[C@@H](C)[C@@H](O)[C@@H](C)[C@H](OC(C)=O)[C@@H]1C [rifampicin]
Settings | AUC25, [4] | Einf, [3] | GRinf, [5] | total FIC50, [1] | total FIC90, [2]
in vitro model: acidic pH 5.7, time point: constant (~7 days, model-specific) | 0.0832 | 0.905 | -0.142 | -0.249 | –
in vitro model: acidic pH 5.7, time point: terminal (~4-5 doublings, model-specific) | 0.0739 | 0.988 | -0.217 | -0.174 | -0.451
in vitro model: intracellular J774, time point: constant = terminal | – | 0.995 | -0.387 | – | -0.136

Settings | AUC25, [4] | Einf, [3] | GRinf, [5] | total FIC50, [1] | total FIC90, [2]
in vitro model: butyrate, time point: constant (~7 days, model-specific) | 0.115 | 0.918 | -0.091 | 0.234 | 0.505
in vitro model: butyrate, time point: terminal (~4-5 doublings, model-specific) | 0.0935 | 0.967 | -0.0615 | 0.0552 | 0.0714
in vitro model: cholesterol 0.05 mM, time point: constant (~7 days, model-specific) | 0.122 | 0.657 | -0.00769 | – | –
in vitro model: cholesterol 0.05 mM, time point: terminal (~4-5 doublings, model-specific) | 0.106 | 0.894 | -0.15 | 1.2 | –
in vitro model: cholesterol-high 0.2 mM, time point: constant (~7 days, model-specific) | 0.113 | 0.864 | -0.605 | 1.06 | –
in vitro model: cholesterol-high 0.2 mM, time point: terminal (~4-5 doublings, model-specific) | 0.107 | 1 | -0.764 | 1.43 | 1.53
in vitro model: dormancy (butyrate + nitrate, low O2), time point: constant (~7 days, model-specific) | 0.0887 | 0.949 | 0.12 | -0.433 | -1.62
in vitro model: dormancy (butyrate + nitrate, low O2), time point: terminal (~4-5 doublings, model-specific) | 0.0801 | 0.994 | -0.455 | -0.413 | 0.318
in vitro model: standard 7H9 glycerol, time point: constant = terminal | 0.114 | 0.935 | 0.0256 | -0.361 | –
in vitro model: valerate, time point: constant (~7 days, model-specific) | 0.106 | 0.813 | 0.205 | 0.653 | –
in vitro model: valerate, time point: terminal (~4-5 doublings, model-specific) | 0.0497 | 0.896 | 0.165 | 0.53 | 1.88

CC(C)/N=c1\cc2n(-c3ccc(Cl)cc3)c3ccccc3nc-2cc1Nc1ccc(Cl)cc1 [clofazimine] + NNC(=O)c1ccncc1 [isoniazid] + CC(=O)NC[C@H]1CN(c2ccc(N3CCOCC3)c(F)c2)C(=O)O1 [linezolid]
Settings | AUC25, [4] | Einf, [3] | GRinf, [5] | total FIC50, [1] | total FIC90, [2]
in vitro model: acidic pH 5.7, time point: constant (~7 days, model-specific) | 0.0908 | 0.806 | -0.134 | 0.331 | –
in vitro model: acidic pH 5.7, time point: terminal (~4-5 doublings, model-specific) | 0.0672 | 0.939 | -0.192 | 0.773 | -0.102
in vitro model: intracellular J774, time point: constant = terminal | – | 0.833 | 0.168 | – | 0.492

Settings | AUC25, [4] | Einf, [3] | GRinf, [5] | total FIC50, [1] | total FIC90, [2]
in vitro model: butyrate, time point: constant (~7 days, model-specific) | 0.113 | 0.954 | -0.181 | 0.73 | 1.87
in vitro model: butyrate, time point: terminal (~4-5 doublings, model-specific) | 0.0763 | 0.977 | -0.106 | 0.921 | 1.01
in vitro model: cholesterol 0.05 mM, time point: constant (~7 days, model-specific) | 0.133 | 0.689 | -0.0122 | -0.374 | –
in vitro model: cholesterol 0.05 mM, time point: terminal (~4-5 doublings, model-specific) | 0.141 | 0.902 | -0.198 | 4.56 | 0.951
in vitro model: cholesterol-high 0.2 mM, time point: constant (~7 days, model-specific) | 0.124 | 0.934 | -0.48 | 0.36 | 1.56
in vitro model: cholesterol-high 0.2 mM, time point: terminal (~4-5 doublings, model-specific) | 0.109 | 1 | -0.827 | 0.186 | 0.424
in vitro model: dormancy (butyrate + nitrate, low O2), time point: constant (~7 days, model-specific) | 0.0763 | 0.914 | 0.0823 | 1.56 | 1.18
in vitro model: dormancy (butyrate + nitrate, low O2), time point: terminal (~4-5 doublings, model-specific) | 0.0355 | 0.972 | -0.074 | 1.16 | 0.734
in vitro model: standard 7H9 glycerol, time point: constant = terminal | 0.126 | 0.959 | -0.237 | 0.207 | 0.757
in vitro model: valerate, time point: constant (~7 days, model-specific) | 0.128 | 0.885 | -0.0388 | 0.318 | –
in vitro model: valerate, time point: terminal (~4-5 doublings, model-specific) | 0.0875 | 0.934 | 0.0843 | 0.0839 | 1.21
